Common to all, as to assay type: functional, cell-based
In one experiment the test system is MCF7. The experiment is described as follows: Cytotoxicity against human MCF7 cells by MTT method. In general terms: Tetrazolium dyes change colour on reduction, which living cells bring about.
Another experiment has as its system MDA-MB-435. The experiment in a line: Cytotoxicity against human MDA-MB-435 cells by MTT method.
A further experiment has as its system HepG2. The experiment is described as follows: Cytotoxicity against human HepG2 cells by MTT method.

Values after ≈ are worked out from the molar mass of the structure shown.

The IC50 is the point on the concentration scale where inhibition reaches its midpoint. High values mean a need for much substance, low ones inhibition by little substance.

For the compound `CC(C)[C@H]1C=C[C@]2(C)Oc3c(C(=O)/C=C/c4ccccc4)c(O)cc(O)c3C2C1` (stereo partly drawn) [Sumadain C], the IC50 stood at 15.9 µg/mL (≈ 40.8 µM) in the experiment with MCF7, 12.8 µg/mL (≈ 32.7 µM) in the experiment with MDA-MB-435 and 13 µg/mL (≈ 33.3 µM) with HepG2.
